Experimental data reported in patent US20150335548A1, “Oral Care Composition” (COLGATE-PALMOLIVE COMPANY, priority 2012, published 2015).

Columns and labels:
A. viscosus = test: Growth inhibition of A. viscosus (optical density over time); type: cell-based; conditions: for optical density of A. viscosus culture, 0 h / optical density of A. viscosus culture, 4 h / optical density of A. viscosus culture, 22 h / optical density of A. viscosus culture, 24 h: 10% concentration in a mouth rinse
Protocol: The effects of 1-decyl-3-methylimidazolium (DMIM) chloride on bacterial growth were investigated in vitro. DMIM chloride was incorporated into a prototype mouth rinse as illustrated in Table 17. […] The growth inhibition was measured as a change in optical density over time.
The antibacterial effects of various ionic liquids were determined according to the protocol described in Example 12.

[1] = test system: 3-day old biofilm of the artificial mouth consortium of bacteria (A. naeslundii, S. oralis, V. parvula, L. casei, F. nucleatum) and S. mutans; test: In vitro biofilm removal, 3-day old biofilm (protocol of Example 2); type: cell-based; conditions: for Percent Removal of a 3-day Oral Biofilm: […] ionic liquid in base prototype mouth rinse of Table 1, 15 minutes, relative to water control; for Percent Biofilm Removal: BMIM-based ionic liquids
Protocol: The 3-day old biofilm was grown on a 24 well plate using the artificial mouth consortium of bacteria (A. naeslundii, S. oralis, V. parvula, L. casei, F. nucleatum) and S. mutans. To generate the biofilm, plates were inoculated with saliva overnight to form a pellicle. The consortium of bacteria (1 mL) at an OD of ˜0.2 was added to each well. The bacterial media (Tryptic Soy Broth with 6% sucrose) was changed after 48 hours. The 3-day old biofilm was treated with the prototype formulation (500 μL) for 15 minutes on a plate shaker at 300 rpm. After incubation, the supernatant was discarded. The optical density of each well was measured and the percentage reduction in optical density relative to the control (water) was calculated to determine the effect of the prototype formulation on biofilm removal. […]
Water, untreated biofilm, commercially available mouthwash formulations with CPC (Cetyl pyridinium chloride) and a mouthwash containing five enzymes for combatting biofilm acted as […] for the experiment.

[2] = test system: 3-day old multispecies oral biofilm (artificial mouth consortium combined with Streptococcus mutans); test: In vitro removal of biofilm by prototype mouthrinse formulations (Example 8); type: cell-based; conditions: for Percent Biofilm Removal: 10% glycerin and 5% propylene glycol; for % removal in High humectant mouthwash / % removal in Low humectant mouthwash: 3-day old biofilm
Protocol: General Procedures Used to Prepare Biofilm
The analyst used a commercially available fluoride dentifrice (Colgate Pro Clinical) and a soft bristled toothbrush (Colgate 360) for routine oral hygiene for 3 days prior to the start of saliva collection. Saliva was collected in the morning, at least two hours after a meal and was centrifuged at 10,000 rpm for 20 minutes. The supernatant was decanted into a Petri dish and placed under UV for 45 minutes.
Bacteria Preparation: Bacteria were taken from the artificial mouth consortium (containing Actinomyces naeslundii, Streptococcus oralis, Veillonella parvula, Lactobacillus casei, and Fusibacterium nucleatum) and combined with Streptococcus mutans which had been grown separately in a ratio of 2:1. Bacteria were grown in tryptic soy broth (TSB) media with 6% sucrose. The resulting bacterial culture was diluted to the required volume, prior to diluting to an optical density of 0.2.
Plate Preparation: 500 μL of UV-treated saliva were added to each well of a 24-well plate. Plates were inoculated overnight in 37° C. After inoculation, excess saliva was discarded and 1 ml of bacteria was added to each well. The bacteria were allowed to attach and develop a biofilm on the bottom of each well over 2 to 4 days, changing the media every 48 hours. During media change, the old media was discarded and 1 ml of fresh media was added.
Treatment: 500 μL of ionic liquid formulation was added to each well and incubated for 4-30 minutes on a plate shaker at 300 rpm. After incubation, the supernatant was discarded. No rinsing was carried out. The optical density of each well was measured at 610 nm, and the percentage reduction in biofilm reduction relative to the control (water) was calculated.
Second Treatment: 500 μL of ionic liquid formulation was added to each well and incubated for 4-30 minutes on a plate shaker at 300 rpm. After discarding the supernatant, the optical density was measured and the percentage reduction in biofilm formation relative to the control (water) was calculated.
An 8 factor design was used. Colgate Plax Re-launch mouth rinse was used a base formulation to build upon. […] Table 11 illustrates the general formulation on the basis of which the prototype formulations were designed.
74 prototype formulations were developed. There are shown below in Table 12 (see next page). Table 12 further illustrates the percentage biofilm reduction after one 15-minute treatment of a 3-day-old biofilm with the formulation, and the viscosity for each formulation. In Table 12, PG is propylene glycol; CPC is cetyl pyridinium chloride; and TRIS is tris(2-hydroxyethyl)methylammonium methylsulfate. All amounts are given in wt %.

[3] = Teeth whitening, in-vitro removal of tooth stains (one hour soak); set-up: species or system human; conditions: 1M in prototype mouth wash of Table 7
Protocol: The method of determining the effects of imidazolium-based ionic liquids on teeth whitening was carried out as follows:
The initial L*a*b* measurements of dried artificially stained human teeth were captured. The teeth were then soaked in 1 ml of sample solution for one hour, and sample was replenished at 30 minutes. After treatment, teeth were soaked in DI water for approximately 10 minutes. The teeth were left to dry at least overnight, and final L*a*b* measurements were then taken. (L*a*b* refers to stain score in accordance with the Commission International de L'Eclairage Laboratory (CIELAB) color scale. L* (lightness-darkness scale), a* (red-green chroma) and b* (yellow-blue chroma)).
The whitening efficacy was determined as follows:
All the EMIM-based compounds were evaluated at 1M concentration in a prototype mouth wash formulation as illustrated in Table 7.

[4] = other ionic liquids, 3-day old biofilm
[5] = EMIM-based ionic liquids, […] in base prototype mouth rinse of Table 1, 3-day old biofilm
[6] = direct comparison EMIM vs BMIM with different anions, 3-day old biofilm
[7] = […] in base prototype mouth rinse of Table 1, 3-day old biofilm
[8] = one ionic liquid at 10, the other at 0
[9] = one ionic liquid at 20, the other at 0

Row | Compound | optical density of A. viscosus culture, 0 h (A. viscosus) | optical density of A. viscosus culture, 4 h (A. viscosus) | optical density of A. viscosus culture, 22 h (A. viscosus) | optical density of A. viscosus culture, 24 h (A. viscosus) | Percent Removal of a 3-day Oral Biofilm [1] [%] | further results
1 | choline acetate | 0.1482 | 0.2559 | 0.9480 | 1.0385 | – | –
2 | 1,2,4-trimethylpyrazolium methylsulfate [MMMPz MeSO4] | 0.1482 | 0.1978 | 0.8519 | 1.0042 | 57.8 | Percent Biofilm Removed [1, 4]: 57.9%
3 | C[N+](C)(C)CCO.[Cl-] [F: Choline chloride, Choline chloride] | 0.1482 | 0.2445 | 1.0236 | 1.0674 | – | –
4 | CC(=O)[O-].CCn1cc[n+](C)c1 [EMIM OAc, EMIM acetate] | 0.1482 | 0.2324 | 0.7942 | 0.8223 | 52.1 | Percent Biofilm Removed [1, 5]: 52.1%; Percent Biofilm Removed [1, 6]: 52.1%
5 | CCCCn1cc[n+](C)c1.[Br-] [BMIM Br, 1-butyl-3-methylimidazolium (BMIM) bromide] | 0.1482 | 0.2373 | 0.5994 | 0.8244 | 48.0 | Percent Biofilm Removal [1, 7]: 48.0%; Percent Biofilm Removed [1, 6]: 48.0%
6 | C[N+](C)(C)CCO.O=C([O-])c1ccccc1O [Choline salicylate, choline salicylate] | 0.1482 | 0.1523 | 0.1542 | 0.1539 | – | growth inhibition of A. viscosus, in words (A. viscosus; formulated at 10% concentration in a mouth rinse): greater growth inhibition of A. viscosus than control compositions containing cetyl pyridinium chloride; Percent Biofilm Removal [2, 8]: 48%; Percent biofilm removal if sorbitol at 20% [2, 8]: 53%; Percent Biofilm Removal [2, 9]: 61%; Percent biofilm removal if sorbitol at 20% [2, 9]: 66%
7 | tris(2-hydroxyethyl)methylammonium methylsulfate [MTEOA MeSO4] | 0.1482 | 0.2605 | 0.8415 | 0.9087 | 52.8 | Percent Biofilm Removed [1, 4]: 52.8%; % removal in High humectant mouthwash ([2]; Conc Tris-HMAM 1%): 39.0%; % removal in Low humectant mouthwash ([2]; Conc Tris-HMAM 1%): 25.6%; % removal in High humectant mouthwash ([2]; Conc Tris-HMAM 2.5%): 50.5%; % removal in Low humectant mouthwash ([2]; Conc Tris-HMAM 2.5%): 28.2%; % removal in High humectant mouthwash ([2]; Conc Tris-HMAM 5%): 53.9%; % removal in Low humectant mouthwash ([2]; Conc Tris-HMAM 5%): 30.9%; % removal in High humectant mouthwash ([2]; Conc Tris-HMAM 10%): 57.7%; % removal in Low humectant mouthwash ([2]; Conc Tris-HMAM 10%): 46.8%; % removal in High humectant mouthwash ([2]; Conc Tris-HMAM 20%): 71.1%; % removal in Low humectant mouthwash ([2]; Conc Tris-HMAM 20%): 57.3%; % removal in High humectant mouthwash ([2]; Conc Tris-HMAM 40%): 73.2%; % removal in Low humectant mouthwash ([2]; Conc Tris-HMAM 40%): 67.1%; Percent Biofilm Removal [2, 8]: 47%; Percent biofilm removal if sorbitol at 20% [2, 8]: 52%; Percent Biofilm Removal [2, 9]: 60%; Percent biofilm removal if sorbitol at 20% [2, 9]: 65%
8 | OC[C@@H](O)[C@@H](O)[C@H](O)[C@@H](O)CO [sorbitol] | – | – | – | – | – | increase in biofilm removal ([2]; 20% sorbitol in the formulations): ~5%
9 | CCn1cc[n+](C)c1.Cc1ccc(S(=O)(=O)[O-])cc1 [EMIM Tosylate, EMIM tosylate] | – | – | – | – | 59.5 | Percent Biofilm Removed [1, 5]: 59.5%
10 | CCOS(=O)(=O)[O-].CCn1cc[n+](C)c1 [EMIM Ethyl SO4, EMIM ethyl sulfate] | 0.1482 | 0.2499 | 0.7514 | 0.7965 | 48.1 | Percent Biofilm Removed [1, 5]: 48.1%; ΔE [3]: 4.41; ΔL [3]: 3.40; ΔW [3]: −2.99
11 | CC(=O)[O-].CCCCn1cc[n+](C)c1 [BMIM OAc, BMIM acetate] | – | – | – | – | 55.9 | Percent Biofilm Removal [1, 7]: 55.8%; Percent Biofilm Removed [1, 6]: 55.8%
12 | CCn1cc[n+](C)c1.[Cl-] [EMIM Cl, 1-ethyl-3-methylimidazolium (EMIM) chloride] | – | – | – | – | 44.3 | Percent Biofilm Removed [1, 5]: 44.3%; Percent Biofilm Removed [1, 6]: 44.3%
13 | COS(=O)(=O)[O-].Cc1n(C)cc[n+]1C [TMIM MeSO4, 1,2,3-trimethylimidazolium (TMIM) methyl sulfate] | – | – | – | – | 51.8 | Percent Biofilm Removed [1, 4]: 51.8%
14 | CCCCn1cc[n+](C)c1.[Cl-] [BMIM Cl, 1-butyl-3-methylimidazolium (BMIM) chloride] | – | – | – | – | 43.8 | Percent Biofilm Removal [1, 7]: 43.8%; Percent Biofilm Removed [1, 6]: 43.8%
15 | CCCCn1cc[n+](C)c1.COS(=O)(=O)[O-] [BMIM MeSO4, BMIM methyl sulfate] | – | – | – | – | 53.9 | Percent Biofilm Removal [1, 7]: 53.9%
16 | CCCCCCCCOS(=O)(=O)[O-].CCCCn1cc[n+](C)c1 [BMIM Octyl SO4, BMIM octyl sulfate] | – | – | – | – | 58.6 | Percent Biofilm Removal [1, 7]: 58.6%
17 | C=CCn1cc[n+](C)c1.[Cl-] [AMIM Cl, 1-allyl-3-methylimidazolium (AMIM) chloride] | 0.1482 | 0.2265 | 0.7091 | 0.8440 | 44.8 | biofilm removal, comparison in words ([1]; 3-day old biofilm): effective in removing biofilm; Percent Biofilm Removed [1, 4]: 44.8%
18 | CCOP(=O)([O-])OCC.CCn1cc[n+](C)c1 [EMIM diethyl PO4, EMIM diethyl phosphate] | – | – | – | – | 52.7 | Percent Biofilm Removed [1, 5]: 52.7%
